From patent publication US5011846A, “Medicament compositions derived from quinolizine and quinolizinone and methods of use thereof” (Merrell Dow Pharmaceuticals Inc., priority 1988, dated 1991)
Where a name gives a salt, the structure may show the parent alone.

Experiments:
[1] = tested on: nausea and vomiting induced by cancer chemotherapeutic agents; details: animal experimental model (Miner et al.; Costall et al.); cited from earlier work
[2] = tested on: acute migraine attack; details: cited from earlier work
[3] = target: 5-HT M-receptor; details: literature values (Fozard et al.), 5-HT receptor antagonism; cited from earlier work
[4] = tested on: Von Bezold-Jarisch Reflex induced by 5-HT; test: Von Bezold-Jarisch Reflex induced by 5-HT injected intravenously into the rat; type: in vivo
Excerpt: The activity of these compounds against 5-HT can be assessed in vivo by measurement of the effect of the compound on the Von Bezold-Jarisch Reflex induced by 5-HT injected intravenously into the rat (see Paintal A.S., Physiol. Rev. 53, 159-227, 1973; J. R. Fozard, Naunyn-Schmiedeberg's Arch. Pharmacol., 326, 1984, 36-44). The transient cardiac slowing arises from an increased afferent vagus activity arising from stimulation by 5-HT of sensory afferent fibers in and around the heart.

[5] = 0.01-0.1 mg/kg given intravenously

Which “prevention of nausea and vomiting induced by cancer chemotherapeutic agents” value (from here on “prevention”) [1] does the source give for `CN1[C@@H]2CC[C@H]1C[C@@H](OC(=O)c1cc(Cl)cc(Cl)c1)C2` [3,5-dichlorobenzoyltropine] here?
The value was “highly effective”.

And the “efficacy in the acute migraine attack” value ([2]; double-blind clinical trial (Loisy et al.))?
Its value is “proved an effective treatment”.

For `CN1[C@@H]2CC[C@H]1C[C@@H](OC(=O)c1c[nH]c3ccccc13)C2` [(3α-tropanyl)-1H-indole-3-carboxylic acid ester], which “prevention” value [1] is on record?
The value was “highly effective”.

Which pA2 [3] does the source give for `CN1[C@@H]2CC[C@H]1C[C@@H](OC(=O)c1ccccc1)C2` [benzoyltropine] here?
Its pA2 is 7.2.

For `Cc1cc(C)cc(C(=O)OC2CC3CC4CC(C2)N3CC4=O)c1` (stereo not drawn) [endo-8-(3,5-dimethylbenzoyl-oxy)hexahydro-2,6-methano-2H-quinolizin-3(4H)-one], which “suppression of Von Bezold-Jarisch Reflex response” value [4, 5] is on record?
Its value is “suppressed the response dose-dependently”.

What about the “suppression of Von Bezold-Jarisch Reflex response” value ([4]; 0.25-1 mg/kg given orally) of the same compound?
Its value is “suppressed the response dose-dependently”.

Which results are given for `O=C(OC1CC2CC3CC(C1)N2CC3=O)c1c[nH]c2ccccc12` (stereo not drawn) [endo-hexahydro-8-(3-indolylcarbonyloxy)-2,6-methano-2H-quinolizin-3(4H)-one hydrochloride]?
suppression of Von Bezold-Jarisch Reflex response [4, 5]: suppressed the response dose-dependently; suppression of Von Bezold-Jarisch Reflex response ([4]; 0.25-1 mg/kg given orally): suppressed the response dose-dependently

Which “prevention” value [1] does the source give for `CCN(CC)CCNC(=O)c1cc(Cl)c(N)cc1OC` [metoclopramide] here?
The value was “highly effective”.

What about the pA2 [3] of the same compound?
Its pA2 is 7.2.

What about the “relief of an acute migraine attack” value ([2]; slow intravenous injection, 10 mg (Hughes 1977)) of the same compound?
Its value is “immediate relief of an acute migraine attack”.

Which pA2 [3] does the source give for `COC(=O)[C@H]1[C@@H](OC(=O)c2ccccc2)C[C@@H]2CC[C@H]1N2` [nor (-) cocaine] here?
Its pA2 is 7.7.

Which pA2 [3] does the source give for `CN1[C@@H]2CC[C@H]1C[C@H](OC(=O)c1ccccc1)C2` [pseudotropyl benzoate] here?
Its pA2 is 7.0.
